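Step 1: Grow cells in 96-well plates. Step 2: Expose to compound for 48 hours at 5 concentrations. Step 3: Interpolate endpoints linearly; if unreached, use highest concentration. Definition used: TGI = concentration required for complete inhibition of growth.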
Key:
Assay in all cases: NCI-60 cell line screen, 48 h
KM20L2 colon = test system: KM20L2 colon
M14 melanoma = test system: M14 melanoma
MOLT-4 leukemia = test system: MOLT-4 leukemia
RXF 393 renal = test system: RXF 393 renal
TK-10 renal = test system: TK-10 renal
NCI-H522 lung = test system: NCI-H522 lung
LOX IMVI melanoma = test system: LOX IMVI melanoma
SK-OV-3 ovarian = test system: SK-OV-3 ovarian
OVCAR-3 ovarian = test system: OVCAR-3 ovarian
SNB-19 CNS = test system: SNB-19 CNS
DMS 273 small cell lung = test system: DMS 273 small cell lung
CAKI-1 renal = test system: CAKI-1 renal
IGROV1 ovarian = test system: IGROV1 ovarian
NCI-H226 lung = test system: NCI-H226 lung
MALME-3M melanoma = test system: MALME-3M melanoma
NCI-H23 lung = test system: NCI-H23 lung
A498 renal = test system: A498 renal
HOP-18 NSCLC = test system: HOP-18 NSCLC
SF-539 CNS = test system: SF-539 CNS
SK-MEL-5 melanoma = test system: SK-MEL-5 melanoma
SK-MEL-28 melanoma = test system: SK-MEL-28 melanoma
SNB-75 CNS = test system: SNB-75 CNS
HL-60(TB) leukemia = test system: HL-60(TB) leukemia
A549 NSCLC = test system: A549 NSCLC
KM12 colon = test system: KM12 colon
OVCAR-8 ovarian = test system: OVCAR-8 ovarian
UO-31 renal = test system: UO-31 renal
ACHN renal = test system: ACHN renal
RXF-631 renal = test system: RXF-631 renal
NCI-H460 lung = test system: NCI-H460 lung
M19-MEL melanoma = test system: M19-MEL melanoma
SF-268 CNS = test system: SF-268 CNS
XF 498 CNS = test system: XF 498 CNS
HCC-2998 colon = test system: HCC-2998 colon
SN12C renal = test system: SN12C renal
SK-MEL-2 melanoma = test system: SK-MEL-2 melanoma
HCT-15 colon = test system: HCT-15 colon
SNB-78 CNS = test system: SNB-78 CNS
COLO 205 colon = test system: COLO 205 colon
CCRF-CEM leukemia = test system: CCRF-CEM leukemia
HOP-62 NSCLC = test system: HOP-62 NSCLC
SF-295 CNS = test system: SF-295 CNS
OVCAR-5 ovarian = test system: OVCAR-5 ovarian
UACC-257 melanoma = test system: UACC-257 melanoma
HCT-116 colon = test system: HCT-116 colon
HOP-92 NSCLC = test system: HOP-92 NSCLC
EKVX NSCLC = test system: EKVX NSCLC
OVCAR-4 ovarian = test system: OVCAR-4 ovarian
SR leukemia = test system: SR leukemia
K-562 leukemia = test system: K-562 leukemia
DLD-1 colon = test system: DLD-1 colon
DMS 114 small cell lung = test system: DMS 114 small cell lung
SW-620 colon = test system: SW-620 colon
786-0 renal = test system: 786-0 renal
UACC-62 melanoma = test system: UACC-62 melanoma
U251 CNS = test system: U251 CNS
LXFL 529 NSCLC = test system: LXFL 529 NSCLC
HT29 colon = test system: HT29 colon
RPMI-8226 leukemia = test system: RPMI-8226 leukemia

With `Cc1cc([N+](=O)[O-])ccc1Sc1c2ccccc2nc2cc(Cl)ccc12` the TGI (KM20L2 colon) was 44.2 µM, the TGI (M14 melanoma) was over 100 µM and the TGI (MOLT-4 leukemia) was 93.7 µM. It also gave a TGI (RXF 393 renal) of over 100 µM, a TGI (TK-10 renal) of over 100 µM and a TGI (NCI-H522 lung) of 78.7 µM. The TGI (LOX IMVI melanoma) was 86.8 µM, the TGI (SK-OV-3 ovarian) was over 100 µM and the TGI (OVCAR-3 ovarian) was over 100 µM. For the same molecule, the TGI (SNB-19 CNS) was over 100 µM, the TGI (DMS 273 small cell lung) was over 100 µM and the TGI (CAKI-1 renal) was 84 µM. The TGI (IGROV1 ovarian) was over 100 µM, the TGI (NCI-H226 lung) was over 100 µM and the TGI (MALME-3M melanoma) was over 100 µM. The TGI (NCI-H23 lung) was 76.9 µM, the TGI (A498 renal) was over 100 µM and the TGI (HOP-18 NSCLC) was over 100 µM. For the same molecule, the TGI (SF-539 CNS) was 57.6 µM, the TGI (SK-MEL-5 melanoma) was over 100 µM and the TGI (SK-MEL-28 melanoma) was over 100 µM. It also gave a TGI (SNB-75 CNS) of 89.7 µM, a TGI (HL-60(TB) leukemia) of 51 µM and a TGI (A549 NSCLC) of over 100 µM. It also gave a TGI (KM12 colon) of 50.4 µM, a TGI (OVCAR-8 ovarian) of 57.3 µM and a TGI (UO-31 renal) of over 100 µM. The TGI (ACHN renal) was over 100 µM, the TGI (RXF-631 renal) was over 100 µM and the TGI (NCI-H460 lung) was over 100 µM. The TGI (M19-MEL melanoma) was over 100 µM, the TGI (SF-268 CNS) was 89.5 µM and the TGI (XF 498 CNS) was 91.5 µM. The TGI (HCC-2998 colon) was over 100 µM, the TGI (SN12C renal) was 92.7 µM and the TGI (SK-MEL-2 melanoma) was over 100 µM. For the same molecule, the TGI (HCT-15 colon) was over 100 µM, the TGI (SNB-78 CNS) was over 100 µM and the TGI (COLO 205 colon) was over 100 µM. It also gave a TGI (CCRF-CEM leukemia) of over 100 µM, a TGI (HOP-62 NSCLC) of over 100 µM and a TGI (SF-295 CNS) of over 100 µM. The TGI (OVCAR-5 ovarian) was over 100 µM, the TGI (UACC-257 melanoma) was over 100 µM and the TGI (HCT-116 colon) was 63.8 µM. It also gave a TGI (HOP-92 NSCLC) of 76.6 µM, a TGI (EKVX NSCLC) of over 100 µM and a TGI (OVCAR-4 ovarian) of over 100 µM. The TGI (SR leukemia) was over 100 µM, the TGI (K-562 leukemia) was over 100 µM and the TGI (DLD-1 colon) was over 100 µM. The TGI (DMS 114 small cell lung) was 52.9 µM, the TGI (SW-620 colon) was 93.5 µM and the TGI (786-0 renal) was over 100 µM. The TGI (UACC-62 melanoma) was over 100 µM, the TGI (U251 CNS) was 80.7 µM and the TGI (LXFL 529 NSCLC) was over 100 µM.

For `CC(C)(C)OC(=O)N[C@H]1CC(O)c2ccccc2N(CC(=O)O)C1=O` (stereo partly drawn), the TGI (KM20L2 colon) was over 100 µM, the TGI (M14 melanoma) was over 100 µM and the TGI (MOLT-4 leukemia) was over 100 µM. It also gave a TGI (RXF 393 renal) of over 100 µM, a TGI (TK-10 renal) of over 100 µM and a TGI (NCI-H522 lung) of over 100 µM. It also gave a TGI (LOX IMVI melanoma) of over 100 µM, a TGI (SK-OV-3 ovarian) of over 100 µM and a TGI (HT29 colon) of over 100 µM. The TGI (OVCAR-3 ovarian) was over 100 µM, the TGI (SNB-19 CNS) was over 100 µM and the TGI (DMS 273 small cell lung) was over 100 µM. For the same molecule, the TGI (CAKI-1 renal) was over 100 µM, the TGI (IGROV1 ovarian) was over 100 µM and the TGI (NCI-H226 lung) was over 100 µM. It also gave a TGI (MALME-3M melanoma) of over 100 µM, a TGI (NCI-H23 lung) of over 100 µM and a TGI (HOP-18 NSCLC) of over 100 µM. The TGI (SF-539 CNS) was over 100 µM, the TGI (SK-MEL-5 melanoma) was over 100 µM and the TGI (SK-MEL-28 melanoma) was over 100 µM. It also gave a TGI (SNB-75 CNS) of over 100 µM, a TGI (HL-60(TB) leukemia) of over 100 µM and a TGI (A549 NSCLC) of over 100 µM. For the same molecule, the TGI (KM12 colon) was over 100 µM, the TGI (OVCAR-8 ovarian) was over 100 µM and the TGI (UO-31 renal) was over 100 µM. It also gave a TGI (ACHN renal) of over 100 µM, a TGI (RXF-631 renal) of over 100 µM and a TGI (NCI-H460 lung) of over 100 µM. The TGI (M19-MEL melanoma) was over 100 µM, the TGI (SF-268 CNS) was over 100 µM and the TGI (XF 498 CNS) was over 100 µM. The TGI (HCC-2998 colon) was over 100 µM, the TGI (SN12C renal) was over 100 µM and the TGI (SK-MEL-2 melanoma) was over 100 µM. For the same molecule, the TGI (HCT-15 colon) was over 100 µM, the TGI (COLO 205 colon) was over 100 µM and the TGI (CCRF-CEM leukemia) was over 100 µM. It also gave a TGI (HOP-62 NSCLC) of over 100 µM, a TGI (SF-295 CNS) of over 100 µM and a TGI (UACC-257 melanoma) of over 100 µM. The TGI (HCT-116 colon) was over 100 µM, the TGI (HOP-92 NSCLC) was over 100 µM and the TGI (EKVX NSCLC) was over 100 µM. For the same molecule, the TGI (OVCAR-4 ovarian) was over 100 µM, the TGI (SR leukemia) was over 100 µM and the TGI (DLD-1 colon) was over 100 µM. It also gave a TGI (DMS 114 small cell lung) of over 100 µM, a TGI (SW-620 colon) of over 100 µM and a TGI (786-0 renal) of over 100 µM. The TGI (UACC-62 melanoma) was over 100 µM and the TGI (LXFL 529 NSCLC) was over 100 µM.

`CC1=Nc2ccccc2NC(c2ccoc2)C1` (stereo not drawn) was tested, and the TGI (KM20L2 colon) was over 100 µM, the TGI (M14 melanoma) was over 100 µM and the TGI (MOLT-4 leukemia) was over 100 µM. It also gave a TGI (RXF 393 renal) of over 100 µM, a TGI (TK-10 renal) of over 100 µM and a TGI (NCI-H522 lung) of over 100 µM. For the same molecule, the TGI (LOX IMVI melanoma) was over 100 µM, the TGI (SK-OV-3 ovarian) was over 100 µM and the TGI (HT29 colon) was over 100 µM. The TGI (OVCAR-3 ovarian) was over 100 µM, the TGI (SNB-19 CNS) was over 100 µM and the TGI (DMS 273 small cell lung) was over 100 µM. For the same molecule, the TGI (CAKI-1 renal) was over 100 µM, the TGI (RPMI-8226 leukemia) was over 100 µM and the TGI (IGROV1 ovarian) was over 100 µM. The TGI (NCI-H226 lung) was over 100 µM, the TGI (MALME-3M melanoma) was over 100 µM and the TGI (NCI-H23 lung) was over 100 µM. For the same molecule, the TGI (A498 renal) was over 100 µM, the TGI (HOP-18 NSCLC) was over 100 µM and the TGI (SF-539 CNS) was over 100 µM. It also gave a TGI (SK-MEL-5 melanoma) of over 100 µM, a TGI (SK-MEL-28 melanoma) of over 100 µM and a TGI (SNB-75 CNS) of over 100 µM. For the same molecule, the TGI (HL-60(TB) leukemia) was over 100 µM, the TGI (A549 NSCLC) was over 100 µM and the TGI (KM12 colon) was over 100 µM. For the same molecule, the TGI (OVCAR-8 ovarian) was over 100 µM, the TGI (UO-31 renal) was over 100 µM and the TGI (ACHN renal) was over 100 µM. The TGI (RXF-631 renal) was over 100 µM, the TGI (NCI-H460 lung) was over 100 µM and the TGI (M19-MEL melanoma) was over 100 µM. It also gave a TGI (SF-268 CNS) of over 100 µM, a TGI (HCC-2998 colon) of over 100 µM and a TGI (SN12C renal) of over 100 µM. For the same molecule, the TGI (SK-MEL-2 melanoma) was over 100 µM, the TGI (HCT-15 colon) was over 100 µM and the TGI (SNB-78 CNS) was over 100 µM. The TGI (COLO 205 colon) was over 100 µM, the TGI (CCRF-CEM leukemia) was over 100 µM and the TGI (HOP-62 NSCLC) was over 100 µM. For the same molecule, the TGI (SF-295 CNS) was over 100 µM, the TGI (OVCAR-5 ovarian) was over 100 µM and the TGI (UACC-257 melanoma) was over 100 µM. It also gave a TGI (HCT-116 colon) of over 100 µM, a TGI (HOP-92 NSCLC) of over 100 µM and a TGI (EKVX NSCLC) of over 100 µM. For the same molecule, the TGI (OVCAR-4 ovarian) was over 100 µM, the TGI (SR leukemia) was over 100 µM and the TGI (K-562 leukemia) was over 100 µM. The TGI (DLD-1 colon) was over 100 µM, the TGI (DMS 114 small cell lung) was over 100 µM and the TGI (SW-620 colon) was over 100 µM. It also gave a TGI (786-0 renal) of over 100 µM, a TGI (UACC-62 melanoma) of over 100 µM and a TGI (U251 CNS) of over 100 µM. The TGI (LXFL 529 NSCLC) was over 100 µM.
